Earlier results in patent US20250134887A1, “METHODS OF TREATING PROSTATE CANCER” (AstraZeneca AB, priority 2022, published 2025).

Test system: patients with mCRPC harboring BRCA1, BRCA2 and ATM mutations
Conditions: disease had progressed on NHA; vs. enzalutamide or abiraterone; cited from earlier work

Structure (SMILES): O=C(c1cc(Cc2n[nH]c(=O)c3ccccc23)ccc1F)N1CCN(C(=O)C2CC2)CC1 [olaparib, 4-[(3-{[4-(cyclopropane-carbonyl)piperazine-1-yl]carbonyl}-4-fluorophenyl)methyl]-2H-phthalazin-1-one]
- imaging-based progression-free survival and overall survival: imaging-based progression-free survival and overall survival benefits
